Assay: Diffusion coefficient (Dcoeff) of FtsA from FRAP
Conditions: for Diffusion Coefficient, mean: Fig. 3j
From the text: We could also use the data from these bleaching experiments to quantify the membrane-binding kinetics and diffusion of membrane-bound proteins by analysing the change of the fluorescence profile during recovery.
Equimolar concentrations of Cy3- and Cy5-labelled FtsA, supplemented with 20% unlabelled FtsA were used to study FRET and FRAP. Five pre-bleach frames were acquired, followed by acceptor photobleaching of a rectangular ROI with 40% 641 nm laser power and a dwell size of 1 µs/pixel, 75% overlapping lines. The recovery of the signal or the increase in donor intensity were measured with either two frames or one frame per second.
Bleaching the acceptor dye leads to an increase in the donor intensity, which can be used to quantify the Foerster Resonance energy transfer (FRET)[48]. FRET efficiency was quantified with E%=Ipost/Ipost+Ipre⋅100 , where Ipost is the intensity of the […] and Ipre is the […]. […] To extract the contribution of both processes, we adjusted a routine recently published by Gerganova et al.[33]. In short, the code provides the contribution of both modes of recovery by analysing the shape of the fluorescence recovery profile. […] Contribution of diffusion leads to a change of the slope of the outer borders of the bleached region (S4h right). Thus, by measuring the change of the slope of the border recovery, diffusion and simple on/off binding can be distinguished. We developed “FRAPdiff”, a graphical user interface, which uses the original fit routine by David Rutkowski. It can be used directly on.tiff movies with annotated bleach regions as ImageJ ROIs. In addition, we added optional bleach correction, user selectable projection axis (x or y), and optional mirroring of the recovery profiles, if bleaching was not symmetric. The original fit routine for estimating the recovery and diffusion dynamics can be found at https://github.com/davidmrutkowski/1DReflectingDiffusion. FRAPdiff is available at 10.5281/zenodo.6400639[49] under the GPLv3 open-source license.

FtsA WT: wild-type E. coli actin-homologue FtsA, membrane anchor of FtsZ
Diffusion Coefficient, mean (0.1 µM FtsA + N): 1.61E-02 µm2/s | Diffusion Coefficient, mean (0.1 µM FtsA + Z&N): 1.18E-02 µm2/s | Diffusion Coefficient, mean (0.1 µM FtsA + Z): 1.69E-02 µm2/s | Diffusion Coefficient (0.1µM FtsA alone, Mean, n=18 (WT), 6 (R286W)): 0.0268 | Diffusion Coefficient, mean (0.1 µM FtsA alone): 2.68E-02 µm2/s | Diffusion Coefficient (0.1µM FtsA alone, replicate Exp.1): 5.58E-02 | Diffusion Coefficient (0.1µM FtsA alone, replicate Exp.10): 2.60E-03 | Diffusion Coefficient (0.1µM FtsA alone, replicate Exp.11): 5.85E-03 | Diffusion Coefficient (0.1µM FtsA alone, replicate Exp.12): 4.68E-03 | Diffusion Coefficient (0.1µM FtsA alone, replicate Exp.13): 4.29E-02 | Diffusion Coefficient (0.1µM FtsA alone, replicate Exp.14): 3.12E-02 | Diffusion Coefficient (0.1µM FtsA alone, replicate Exp.15): 2.09E-02 | Diffusion Coefficient (0.1µM FtsA alone, replicate Exp.16): 1.45E-02 | Diffusion Coefficient (0.1µM FtsA alone, replicate Exp.17): 4.66E-02 | Diffusion Coefficient (0.1µM FtsA alone, replicate Exp.18): 2.25E-02 | Diffusion Coefficient (0.1µM FtsA alone, replicate Exp.2): 3.42E-03 | Diffusion Coefficient (0.1µM FtsA alone, replicate Exp.3): 1.87E-02 | Diffusion Coefficient (0.1µM FtsA alone, replicate Exp.4): 5.22E-02 | Diffusion Coefficient (0.1µM FtsA alone, replicate Exp.5): 2.45E-02 | Diffusion Coefficient (0.1µM FtsA alone, replicate Exp.6): 4.34E-02 | Diffusion Coefficient (0.1µM FtsA alone, replicate Exp.7): 4.83E-02 | Diffusion Coefficient (0.1µM FtsA alone, replicate Exp.8): 3.63E-02 | Diffusion Coefficient (0.1µM FtsA alone, replicate Exp.9): 8.38E-03 | Diffusion Coefficient (0.1µM, + FtsN&Z, Mean, n=5 (WT), 3 (R286W)): 0.0118 | Diffusion Coefficient (0.1µM, + FtsN&Z, replicate Exp.1): 3.37E-03 | Diffusion Coefficient (0.1µM, + FtsN&Z, replicate Exp.2): 5.52E-03 | Diffusion Coefficient (0.1µM, + FtsN&Z, replicate Exp.3): 9.34E-03 | Diffusion Coefficient (0.1µM, + FtsN&Z, replicate Exp.4): 2.03E-02 | Diffusion Coefficient (0.1µM, + FtsN&Z, replicate Exp.5): 2.02E-02 | Diffusion Coefficient (0.1µM, + FtsN, Mean, n=5 (WT), 3 (R286W)): 0.0161 | Diffusion Coefficient (0.1µM, + FtsN, replicate Exp.1): 2.03E-02 | Diffusion Coefficient (0.1µM, + FtsN, replicate Exp.2): 6.39E-04 | Diffusion Coefficient (0.1µM, + FtsN, replicate Exp.3): 1.18E-02 | Diffusion Coefficient (0.1µM, + FtsN, replicate Exp.4): 1.64E-02 | Diffusion Coefficient (0.1µM, + FtsN, replicate Exp.5): 3.14E-02 | Diffusion Coefficient (0.1µM, + FtsZ, Mean, n=8 (WT), 4 (R286W)): 0.0169 | Diffusion Coefficient (0.1µM, + FtsZ, replicate Exp.1): 1.01E-02 | Diffusion Coefficient (0.1µM, + FtsZ, replicate Exp.2): 2.79E-03 | Diffusion Coefficient (0.1µM, + FtsZ, replicate Exp.3): 1.71E-02 | Diffusion Coefficient (0.1µM, + FtsZ, replicate Exp.4): 3.53E-02 | Diffusion Coefficient (0.1µM, + FtsZ, replicate Exp.5): 2.97E-02 | Diffusion Coefficient (0.1µM, + FtsZ, replicate Exp.6): 3.44E-03 | Diffusion Coefficient (0.1µM, + FtsZ, replicate Exp.7): 2.52E-02 | Diffusion Coefficient (0.1µM, + FtsZ, replicate Exp.8): 1.14E-02 | Diffusion Coefficient, mean (0.2 µM FtsA + N): 1.32E-02 µm2/s | Diffusion Coefficient, mean (0.2 µM FtsA + Z&N): 7.76E-03 µm2/s | Diffusion Coefficient, mean (0.2 µM FtsA + Z): 8.12E-03 µm2/s | Diffusion Coefficient (0.2µM FtsA alone, Mean, n=24 (WT), 6 (R286W)): 0.0177 | Diffusion Coefficient, mean (0.2 µM FtsA alone): 1.77E-02 µm2/s | Diffusion Coefficient (0.2µM FtsA alone, replicate Exp.1): 1.00E-02 | Diffusion Coefficient (0.2µM FtsA alone, replicate Exp.10): 2.11E-07 | Diffusion Coefficient (0.2µM FtsA alone, replicate Exp.11): 2.08E-02 | Diffusion Coefficient (0.2µM FtsA alone, replicate Exp.12): 4.11E-02 | Diffusion Coefficient (0.2µM FtsA alone, replicate Exp.13): 2.52E-02 | Diffusion Coefficient (0.2µM FtsA alone, replicate Exp.14): 2.77E-02 | Diffusion Coefficient (0.2µM FtsA alone, replicate Exp.15): 1.77E-05 | Diffusion Coefficient (0.2µM FtsA alone, replicate Exp.16): 1.11E-02 | Diffusion Coefficient (0.2µM FtsA alone, replicate Exp.17): 1.44E-03 | Diffusion Coefficient (0.2µM FtsA alone, replicate Exp.18): 2.14E-02 | Diffusion Coefficient (0.2µM FtsA alone, replicate Exp.19): 1.18E-02 | Diffusion Coefficient (0.2µM FtsA alone, replicate Exp.2): 4.63E-02 | Diffusion Coefficient (0.2µM FtsA alone, replicate Exp.20): 1.47E-02 | Diffusion Coefficient (0.2µM FtsA alone, replicate Exp.21): 5.71E-03 | Diffusion Coefficient (0.2µM FtsA alone, replicate Exp.22): 9.23E-03 | Diffusion Coefficient (0.2µM FtsA alone, replicate Exp.23): 4.39E-06 | Diffusion Coefficient (0.2µM FtsA alone, replicate Exp.24): 1.05E-03 | Diffusion Coefficient (0.2µM FtsA alone, replicate Exp.3): 3.82E-02 | Diffusion Coefficient (0.2µM FtsA alone, replicate Exp.4): 2.69E-04 | Diffusion Coefficient (0.2µM FtsA alone, replicate Exp.5): 3.65E-02 | Diffusion Coefficient (0.2µM FtsA alone, replicate Exp.6): 2.63E-02 | Diffusion Coefficient (0.2µM FtsA alone, replicate Exp.7): 1.83E-02 | Diffusion Coefficient (0.2µM FtsA alone, replicate Exp.8): 5.09E-02 | Diffusion Coefficient (0.2µM FtsA alone, replicate Exp.9): 5.70E-03 | Diffusion Coefficient (0.2µM, + FtsN&Z, Mean, n=8 (WT), 6 (R286W)): 0.0078 | Diffusion Coefficient (0.2µM, + FtsN&Z, replicate Exp.1): 1.04E-02 | Diffusion Coefficient (0.2µM, + FtsN&Z, replicate Exp.2): 2.82E-03 | Diffusion Coefficient (0.2µM, + FtsN&Z, replicate Exp.3): 5.82E-03 | Diffusion Coefficient (0.2µM, + FtsN&Z, replicate Exp.4): 1.62E-02 | Diffusion Coefficient (0.2µM, + FtsN&Z, replicate Exp.5): 5.88E-03 | Diffusion Coefficient (0.2µM, + FtsN&Z, replicate Exp.6): 3.75E-03 | Diffusion Coefficient (0.2µM, + FtsN&Z, replicate Exp.7): 5.36E-03 | Diffusion Coefficient (0.2µM, + FtsN&Z, replicate Exp.8): 1.18E-02 | Diffusion Coefficient (0.2µM, + FtsN, Mean, n=7 (WT), 4 (R286W)): 0.0132 | Diffusion Coefficient (0.2µM, + FtsN, replicate Exp.1): 1.41E-02 | Diffusion Coefficient (0.2µM, + FtsN, replicate Exp.2): 1.35E-02 | Diffusion Coefficient (0.2µM, + FtsN, replicate Exp.3): 8.81E-03 | Diffusion Coefficient (0.2µM, + FtsN, replicate Exp.4): 1.88E-02 | Diffusion Coefficient (0.2µM, + FtsN, replicate Exp.5): 1.36E-02 | Diffusion Coefficient (0.2µM, + FtsN, replicate Exp.6): 1.15E-02 | Diffusion Coefficient (0.2µM, + FtsN, replicate Exp.7): 1.21E-02 | Diffusion Coefficient (0.2µM, + FtsZ, Mean, n=7 (WT), 6 (R286W)): 0.0081 | Diffusion Coefficient (0.2µM, + FtsZ, replicate Exp.1): 8.42E-03 | Diffusion Coefficient (0.2µM, + FtsZ, replicate Exp.2): 4.10E-03 | Diffusion Coefficient (0.2µM, + FtsZ, replicate Exp.3): 4.88E-04

Reference: publication PMC9098913, “In vitro reconstitution of Escherichia coli divisome activation” (Nature Communications, 2022)
